The text below walks through data of ChEMBL document CHEMBL5154729, “A fragment integrational approach to GPCR inhibition: Identification of a high affinity small molecule CXCR4 antagonist” (Eur J Med Chem, 2022).

One may read the Kd as a measure of binding affinity in units of concentration. The low end stands for tighter binding, the high end for weaker binding. What is called IC50 is the concentration that inhibits the measured activity by half.

Each structure is given as a SMILES string. Active and inactive are the calls of the source. The rule behind the calls is not given here.

For data set [1], the target named is T1, C-X-C chemokine receptor type 4 (Homo sapiens, UniProt P61073). The data set is described as follows: Binding affinity to CXCR4 (unknown origin) expressed in CHO cells measured by Scatchard plot analysis. Format: cell-based.
The target in data set [2] is T1, C-X-C chemokine receptor type 4. Nature of the data set: Antagonist activity at CXCR4 receptor in human SUP-T1 assessed as inhibition of SDF-1alpha-induced CXCR4 internalization at 0.1 to 10 uM and measured by flow cytometry analysis. Format: functional, cell-based. Conditions: filed as antagonist, dose 0.1-10 µM, DDE = dose-dependent effect.
The target is the same in data set [3]. Nature of the data set: Antagonist activity at CXCR4 receptor expressed in CHO cells transfected with SRE-luc2P assessed as reduction in SDF-1alpha-mediated ERK/MAPK activation at 10 uM and measured by luciferase reporter gene assay. Format: functional, cell-based. The settings on record: filed as antagonist.
In data set [4] the test system is CCRF-CEM. The data set is described as follows: Cytotoxicity against human CEM-GFP cells at 0.32 to 25000 nM measured by CellTiter-Blue cell viability assay. Format: toxicity, cell-based. Conditions: 25 µM, dose 0.32-25000 nM.
The test system of data set [5] is C-X-C chemokine receptor type 4 (Homo sapiens), P61073 [E288D]. The data set is described as follows: Binding affinity to CXCR4 E288D mutant (unknown origin) expressed in CHO cells at 100 nM measured by 12G5 competitive binding method. Format: cell-based. The settings on record: filed as antagonist.
Data set [6] deals with SUP-T1. Nature of the data set: Cytotoxicity against human SUP-T1 cells at 10 to 50 uM after 72 hrs CellTiter-96 assay. Format: toxicity, cell-based. Conditions: sup-t1, 72 h, dose 10-50 µM.
Data set [7] deals with T1, C-X-C chemokine receptor type 4. The data set is described as follows: Antagonist activity at CXCR4 receptor in CHO cells expressing EGFP-CXCR4 assessed as inhibition of SDF-1alpha-induced CXCR4 internalization at 1 to 100 nM and measured by confocal microscopy. The settings on record: filed as antagonist, dose 1-100 nM. Format: functional, cell-based.
In data set [8] the test system is CHO. The data set is described as follows: Binding affinity to CXCR4 D262E mutant (unknown origin) expressed in CHO cells at 100 nM measured by 12G5 competitive binding method. Format: cell-based. Conditions: Homo sapiens, filed as antagonist.
Data set [9] addresses T1, C-X-C chemokine receptor type 4. Nature of the data set: Antagonist activity at CXCR4 receptor expressed in CHO cells transfected with NFAT-RE-luc2P assessed as reduction in SDF-1alpha-mediated calcium signaling pathway at 10 uM and measured by luciferase reporter gene assay. Format: functional, cell-based. Conditions: filed as antagonist.
For data set [10] the target is unchanged. The data set is described as follows: Antagonist activity at CXCR4 receptor in SDF-1alpha-stimulated human SUP-T1 cells measured by calcium mobilization assay. Format: functional, cell-based.
Data set [11] deals with C-X-C chemokine receptor type 4 (Homo sapiens), P61073 [E288A]. Nature of the data set: Binding affinity to CXCR4 E288A mutant (unknown origin) expressed in CHO cells at 100 nM measured by 12G5 competitive binding method. Format: cell-based. The settings on record: filed as antagonist.
Data set [12] concerns the target T1, C-X-C chemokine receptor type 4. The data set is described as follows: Antagonist activity at CXCR4 receptor expressed in CHO cells transfected with […] assessed as reduction in SDF-1alpha-mediated RhoA activation at 10 uM and measured by luciferase reporter gene assay. Format: functional, cell-based. The settings on record: filed as antagonist. On the technique in general: A reporter such as luciferase makes a cellular process visible.

Data set [13] shares this target. The data set is described as follows: Antagonist activity at CXCR4 receptor expressed in CHO cells transfected with CRE-luc2P assessed as reduction in forskolin-stimulated SDF-1alpha-mediated inhibition of cAMP production at 10 uM and measured by luciferase reporter gene assay. Format: functional, cell-based. The settings on record: filed as antagonist.
Data set [14] has as its system C-X-C chemokine receptor type 4 (Homo sapiens), P61073 [D262A]. Nature of the data set: Binding affinity to CXCR4 D262A mutant (unknown origin) expressed in CHO cells at 100 nM measured by 12G5 competitive binding method. Format: cell-based. The settings on record: filed as antagonist.
In data set [15] the test system is Human immunodeficiency virus 1. The data set is described as follows: Antiviral activity against HIV1 NL4-3 virus infected in human CEM-GFP cells assessed as reduction in CXCR4-mediated HIV-1 infection at 0.1 to 10000 nM measured by fluorescence assay. Format: functional, organism-based. Conditions: dose 0.1-10000 nM.
The target in data set [16] is T1, C-X-C chemokine receptor type 4. Nature of the data set: Binding affinity to CXCR4 (unknown origin) expressed in CHO cells measured by 12G5 competitive binding method. Format: cell-based.

T1 sequence (P61073 whole entry): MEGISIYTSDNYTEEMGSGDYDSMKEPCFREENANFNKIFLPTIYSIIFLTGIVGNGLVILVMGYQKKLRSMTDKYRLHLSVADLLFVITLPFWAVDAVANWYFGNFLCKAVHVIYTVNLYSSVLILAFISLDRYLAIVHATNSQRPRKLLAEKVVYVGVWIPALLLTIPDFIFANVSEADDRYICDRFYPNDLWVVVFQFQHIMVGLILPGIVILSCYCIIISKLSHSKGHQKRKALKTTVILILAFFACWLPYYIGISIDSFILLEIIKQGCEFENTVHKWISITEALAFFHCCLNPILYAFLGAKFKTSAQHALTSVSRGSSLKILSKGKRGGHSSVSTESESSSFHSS
Sequence of C-X-C chemokine receptor type 4 (Homo sapiens), P61073 [E288D] (P61073 whole entry E288D): as the sequence (P61073 whole entry) above, with E288D counted along it
Sequence of C-X-C chemokine receptor type 4 (Homo sapiens), P61073 [E288A] (P61073 whole entry E288A): as the sequence (P61073 whole entry) above, with E288A counted along it
Sequence of C-X-C chemokine receptor type 4 (Homo sapiens), P61073 [D262A] (P61073 whole entry D262A): as the sequence (P61073 whole entry) above, with D262A counted along it

`N/C(=N\C(=O)CCCCCNC(=S)Nc1ccc2c(c1)C(=O)OC21c2ccc(O)cc2Oc2cc(O)ccc21)NCCC[C@H](NCc1ccccn1)C(=O)NCc1ccc(CNCCCNC2CCCCC2)cc1`: in data set [1], the affinity, expressed as Kd, was 0.033 µM.
Consider `c1cc(CN2CCCNCCNCCCNCC2)ccc1CN1CCCNCCNCCCNCC1`, for which the inhibition entry in [2] is “Dde”.
As for `N=C(N)NCCC[C@H](NCc1ccccn1)C(=O)NCc1ccc(CNCCCNC2CCCCC2)cc1`, the outcome in data set [3], in data set [9], in data set [12], in [13] and in data set [15] was Active. Besides, the Activity entry in [4] is “Non-Toxic”; in [5], more than 60%; in [6], “Non-Toxic”; in data set [8] it was more than 60%; in data set [11] it was more than 90%; in data set [14], more than 40%. In addition, the inhibition entry in [2] was “Dde”. In addition, the inhibition result in data set [7] is “Active”. The figures for the IC50 in [10] and in data set [16] were 0.0016 µM and 0.012 µM, respectively.
